From patent US12509467B2 (Hoffmann-La Roche Inc., priority 2020, dated 2025)
Where two headings read alike, the source gives them in different places.

Target: T1, human cGAS (residues 161-522) (Homo sapiens, UniProt Q8N884)
T1 construct: Recombinantly expressed purified human cGAS (residues 161-522) was used at 25 nM; made in house
Experiment: cGAS Activity Assay—Malachite Green
Assay type: biochemical
Experimental: Compounds were tested for cGAS inhibition in a coupled enzymatic assay based on Phosphate detection by Malachite Green. Final assay conditions were 20 mM TRIS pH 7.5 (Applichem), 5 mM MgCl2 (Sigma) and 0.01% BSA (Sigma) supplemented with 80 μM ATP (Sigma), 80 μM GTP (Sigma) and 100 nM Interferon Stimulating DNA (ISD) (Microsynth).
1 μL of DMSO dilution series was transferred to 32.3 μL reaction buffer, mixed by pipetting up/down, spun for 1 minute at 3000 rpm and was visually inspected for precipitation. 5 μL of 3-fold enzyme stock solution were transferred to an empty 384-well Black/Clear Flat Bottom Polystyrene NBS (Corning) rows 3-24. Rows 1-2 were filled with assay buffer. Plates were spun 10 seconds at 1000 rpm (164×g). 5 μL of compound intermediate dilution was added and mixed by pipetting up/down to rows 3-24. Rows 1-2 were filled with 3.1% DMSO assay buffer. Plates were spun 10 seconds at 1000 rpm (164×g). 5 μL 3-fold Nucleotide/DNA mix was added to all wells to start the reaction. Plates were spun 10 seconds at 1000 rpm (164×g) and incubated for 4 hour at room temperature (RT) in the dark. 5 μL 4 U/mL PPase (Sigma) were added to all wells. Plates spun 10 seconds at 1000 rpm (164×g). 10 μL BioMol green Solution (Enzo Life Sciences) was added to all wells. Plates spun 10 seconds at 1000 rpm (164×g) and incubated 30 minutes at RT in the dark. Absorbance data was collected 620 nm on an EnVision Multilable Reader (Perkin Elmer) and the following measurement settings were used: excitation filter photometric was 620 nm; excitation from the top; measurement height was 1 mm; number of flashes was 30; number of flashes integrated was 1.
All plates are checked for abnormalities and outliers in the Blank Control (no protein, row 1) and the Neutral Control (no compound, row 2) are excluded using the 3*SD rule.
Table 5 provides IC50 values (μM) for cGAS inhibition obtained for particular examples of the present invention as measured by the above-described assay.

[1] = cGAS inhibition, 25 nM cGAS, 80 μM ATP, 80 μM GTP, 100 nM ISD, 4 hour at RT, Malachite Green phosphate detection, read-out: IC50 cGAS

T1 sequence (Q8N884 161-522): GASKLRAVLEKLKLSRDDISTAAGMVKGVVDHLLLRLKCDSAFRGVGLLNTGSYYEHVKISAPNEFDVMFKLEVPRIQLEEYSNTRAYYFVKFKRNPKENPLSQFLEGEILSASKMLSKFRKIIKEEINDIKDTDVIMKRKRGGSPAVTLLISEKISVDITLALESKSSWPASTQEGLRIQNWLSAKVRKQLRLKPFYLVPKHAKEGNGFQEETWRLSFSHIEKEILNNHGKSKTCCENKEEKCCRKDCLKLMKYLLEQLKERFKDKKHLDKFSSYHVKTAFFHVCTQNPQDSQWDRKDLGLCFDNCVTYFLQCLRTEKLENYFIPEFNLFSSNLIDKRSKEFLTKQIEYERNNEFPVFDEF

| Compound | IC50 [1] [nM] | IC50 [nM] |
| --- | --- | --- |
| Cn1ccc(-c2ccc(CNc3nc4[nH]c(C(F)(F)F)cc(=O)n4n3)cc2)n1 [Example 18, 2-[[4-(1-methylpyrazol-3-yl)-phenyl]methylamino]-5-(trifluoromethyl)-4H-[1,2,4]-triazolo[1,5-a]pyrimidin-7-one] | 2820 |  |
| CCCCc1cc(=O)n2nc(NCc3ccn(-c4ccccc4)n3)nc2[nH]1 [Example 47, 5-butyl-2-[(1-phenylpyrazol-3-yl)methylamino]-4H-[1,2,4]-triazolo[1,5-a]pyrimidin-7-one] | 2010 |  |
| CCCc1cc(=O)n2nc(NCc3ccc(-c4ncccn4)cc3)nc2[nH]1 [Example 2, 5-propyl-2-[(4-pyrimidin-2-yl-phenyl)methylamino]-4H-[1,2,4]-triazolo[1,5-a]pyrimidin-7-one;] | 4380 |  |
| CCCc1cc(=O)n2nc(NCc3ccc(OC4CC4)cc3)nc2[nH]1 [Example 10, 2-[[4-(cyclopropoxy)phenyl]-methylamino]-5-propyl-4H-[1,2,4]triazolo[1,5-a]pyrimidin-7-one] | 4080 |  |
| O=c1cc(CC2CCC2)[nH]c2nc(NCc3ccc(Cl)cc3Cl)nn12 [Example 65] | 1590 |  |
| COCCc1cc(=O)n2nc(NCc3cc(-c4ccn(C)n4)ccc3Cl)nc2[nH]1 [Example 51, 2-[[2-chloro-5-(1-methylpyrazol-3-yl)phenyl]methylamino]-5-(2-methoxyethyl)-4H-[1,2,4]-triazolo[1,5-a]pyrimidin-7-one] | 491 |  |
| Cn1ccc(-c2ccc(Cl)c(CNc3nc4[nH]c(Cc5ccccc5)cc(=O)n4n3)c2)n1 [Example 27] | 178 |  |
| CCCCc1cc(=O)n2nc(NCc3cc(C4CC4)on3)nc2[nH]1 [Example 49, 5-butyl-2-[(5-cyclopropylisox-azol-3-yl)methylamino]-4H-[1,2,4]triazolo[1,5-a]pyrimidin-7-one] | 4660 |  |
| CCCCc1cc(=O)n2nc(NCc3cc(-c4ccn(C)n4)ccc3Cl)nc2[nH]1 [Example 32, 5-butyl-2-[[2-chloro-5-(1-methyl-pyrazol-3-yl)phenyl]methyl-amino]-4H-[1,2,4]triazolo[1,5-a]pyrimidin-7-one] | 162 |  |
| CCCc1cc(=O)n2nc(NCc3cc(-c4ccncn4)ccc3Cl)nc2[nH]1 [Example 38, 2-[(2-chloro-5-pyrimidin-4-yl-phenyl)methylamino]-5-propyl-4H-[1,2,4]triazolo[1,5-a]-pyrimidin-7-one] | 277 |  |
| CCCCc1cc(=O)n2nc(NCc3cc(-c4ccccc4)on3)nc2[nH]1 [Example 46, 5-butyl-2-[(5-phenylisoxazol-3-yl)methylamino]-4H-[1,2,4]-triazolo[1,5-a]pyrimidin-7-one-5-butyl-2-[(5-phenylisoxazol-3-yl)methylamino]-4H-[1,2,4]-triazolo[1,5-a]pyrimidin-7-one] | 805 |  |
| CCCc1cc(=O)n2nc(NCc3cc(-c4cn(C)cn4)ccc3Cl)nc2[nH]1 [Example 30, 2-[[2-chloro-5-(1-methylimid-azol-4-yl)phenyl]methylamino]-5-propyl-4H-[1,2,4]triazolo[1,5-a]pyrimidin-7-one] |  | 444 |
| CCCCc1cc(=O)n2nc(NCc3cc(-c4ccccc4)nn3C)nc2[nH]1 [Example 44, 5-butyl-2-[(2-methyl-5-phenyl-pyrazol-3-yl)methylamino]-4H-[1,2,4]triazolo[1,5-a]pyrimidin-7-one] | 6570 |  |
| CCc1cc(=O)n2nc(NCc3ccc(Cl)cc3Cl)nc2[nH]1 [Example 37, 2-[(2,4-dichlorophenyl)methyl-amino]-5-ethyl-4H-[1,2,4]-triazolo[1,5-a]pyrimidin-7-one] | 5160 |  |
| CCCc1cc(=O)n2nc(NCc3ccc(OCc4ccccc4)cc3)nc2[nH]1 [Example 17, 2-[(4-benzyloxyphenyl)methyl-amino]-5-propyl-4H-[1,2,4]-triazolo[1,5-a]pyrimidin-7-one] |  | 4080 |
| CCCc1cc(=O)n2nc(NCc3cc(-c4cncnc4)ccc3Cl)nc2[nH]1 [Example 36, 2-[(2-chloro-5-pyrimidin-5-yl-phenyl)methylamino]-5-propyl-4H-[1,2,4]triazolo[1,5-a]-pyrimidin-7-one] | 392 |  |
| CCCc1cc(=O)n2nc(NCc3cc(-c4ccccc4)ccc3Cl)nc2[nH]1 [Example 23, 2-[(2-chloro-5-phenylphenyl)-methylamino]-5-propyl-4H-[1,2,4]triazolo[1,5-a]pyrimidin-7-one] | 2440 |  |
| Cc1cc(=O)n2nc(NCc3cc(-c4ccn(C)n4)ccc3Cl)nc2[nH]1 [Example 34, 2-[[2-chloro-5-(1-methylpyrazol-3-yl)phenyl]methylamino]-5-methyl-4H-[1,2,4]triazolo[1,5-a]-pyrimidin-7-one] | 2110 |  |
| CCCc1cc(=O)n2nc(NCc3ccc(OC)cc3F)nc2[nH]1 [Example 6, 2-[(2-fluoro-4-methoxyphenyl)-methylamino]-5-propyl-4H-[1,2,4]triazolo[1,5-a]pyrimidin-7-one] | 2910 |  |
| CCCc1cc(=O)n2nc(NCc3ccc(Cl)cc3Cl)nc2[nH]1 [Example 58, 2-[(2,4-Dichlorophenyl)methylamino]-5-propyl-4H-[1,2,4]triazolo[1,5-a]pyrimidin-7-one] | 1720 |  |
| CCCc1cc(=O)n2nc(NCc3ccc(-n4ccnc4)cc3)nc2[nH]1 [Example 9, 2-[(4-imidazol-1-ylphenyl)meth-ylamino]-5-propyl-4H-[1,2,4]-triazolo[1,5-a]pyrimidin-7-one] | 4010 |  |

Now from value to compound:

| IC50 [1] [nM] | IC50 [nM] | Compound |
| --- | --- | --- |
| 6720 |  | CCCc1cc(=O)n2nc(NC(C)c3ccc(Cl)cc3Cl)nc2[nH]1 (stereo not shown) [Example 76, 2-[1-(2,4-dichlorophenyl)ethyl-amino]-5-propyl-4H-[1,2,4]-triazolo[1,5-a]pyrimidin-7-one] |
| 1920 |  | O=c1cc(CNc2ccccc2F)[nH]c2nc(NCc3ccccc3Cl)nn12 [Example 80, 2-[(2-Chlorophenyl)methylamino]-5-1(2-fluoroanilino)methyl1-4H-11,2,41triazolo[1,5-a]pyrimidin-7-one] |
|  | 2700 | CC(C)c1ccc(CNc2nc3[nH]c(Cc4ccccc4)cc(=O)n3n2)cc1 [Example 73, 5-benzyl-2-[(4-isopropylphen-yl)methylamino]-4H-[1,2,4]-triazolo[1,5-a]pyrimidin-7-one] |
| 827 |  | O=c1cc(C(F)(F)F)[nH]c2nc(NCc3ccc(-c4ccccc4)cc3)nn12 [Example 75, 2-[(4-phenylphenyl)methyl-amino]-5-(trifluoromethyl)-4H-[1,2,4]triazolo[1,5-a]pyrimidin-7-one] |
| 1150 |  | CCCc1cc(=O)n2nc(NCc3cc(-c4ccn(C)n4)ccc3C#N)nc2[nH]1 [Example 84, 4-(1-methylpyrazol-3-yl)-2-[[(7-oxo-5-propyl-4H-[1,2,4]-triazolo[1,5-a]pyrimidin-2-yl)amino]methyl]benzonitrile] |
|  | 1240 | CCCc1cc(=O)n2nc(NCc3cc(-c4ccn(C)n4)ccc3C)nc2[nH]1 [Example 83, 2-[[2-methyl-5-(1-methyl-pyrazol-3-yl)phenyl]methyl-amino]-5-propyl-4H-[1,2,4]-triazolo[1,5-a]pyrimidin-7-one] |
|  | 7790 | O=c1nc(CCc2ccccc2)[nH]c2nc(NCc3ccc(Cl)cc3Cl)nn12 [Example 101, 2-[(2,4-Dichlorophenyl)methylamino]-5-(2-phenylethyl)-4H-[1,2,4]triazolo[1,5-a][1,3,5]-triazin-7-one] |
|  | 640 | CCCc1cc(=O)n2nc(NCc3cc(-n4cncc4C)ccc3Cl)nc2[nH]1 [Example 87, 2-[[2-chloro-5-(5-methylimidazol-1-yl)phenyl]methylamino]-5-propyl-4H-[1,2,4]triazolo[1,5-a]pyrimidin-7-one] |
| 1490 |  | CCCc1cc(=O)n2nc(NCc3cc(-c4ccn(C)n4)ccn3)nc2[nH]1 [Example 82, 2-[[4-(1-methylpyrazol-3-yl)-2-pyridyl]methylamino]-5-propyl-4H-[1,2,4]triazolo-[1,5-a]pyrimidin-7-one] |
|  | 5220 | CCCc1cc(=O)n2nc(NCc3cnc(N4CCN(C)CC4)cc3Cl)nc2[nH]1 [Example 100] |
|  | 8410 | CC(Nc1nc2[nH]c(C(F)(F)F)cc(=O)n2n1)c1ccc(Cl)cc1Cl (stereo not shown) [Example 77, 2-[1-(2,4-dichlorophenyl)ethyl-amino]-5-(trifluoromethyl)-4H-[1,2,4]triazolo[1,5-a]pyrimidin-7-one] |
| 2770 |  | CCCc1cc(=O)n2nc(NCc3cc(-c4cccnn4)ccc3Cl)nc2[nH]1 [Example 85, 2-[(2-Chloro-5-pyridazin-3-yl-phenyl)methylamino]-5-propyl-4H-[1,2,4]triazolo[1,5-a]pyrimidin-7-one] |
| 79 |  | CCCCc1cc(=O)n2nc(NCc3cc(-c4ccncn4)ccc3Cl)nc2[nH]1 [Example 86, 5-Butyl-2-[(2-chloro-5-pyrimidin-4-yl-phenyl)methylamino]-4H-[1,2,4]triazolo [1,5-a]pyrimidin-7-one] |
